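Assay format: 96-well plates, 48-hour exposure. TGI: concentration producing complete growth inhibition.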
What was measured:
Experiment in all cases: growth of human tumour cells (NCI), 48 h
MDA-MB-231 breast = tested on: MDA-MB-231 breast
UACC-62 melanoma = tested on: UACC-62 melanoma
HCT-116 colon = tested on: HCT-116 colon
SK-OV-3 ovarian = tested on: SK-OV-3 ovarian
U251 CNS = tested on: U251 CNS
HCC-2998 colon = tested on: HCC-2998 colon
IGROV1 ovarian = tested on: IGROV1 ovarian
CCRF-CEM leukemia = tested on: CCRF-CEM leukemia
SK-MEL-2 melanoma = tested on: SK-MEL-2 melanoma
A498 renal = tested on: A498 renal
SK-MEL-28 melanoma = tested on: SK-MEL-28 melanoma
ACHN renal = tested on: ACHN renal
MALME-3M melanoma = tested on: MALME-3M melanoma
NCI/ADR-RES ovarian = tested on: NCI/ADR-RES ovarian
NCI-H226 lung = tested on: NCI-H226 lung
KM12 colon = tested on: KM12 colon
HS 578T breast = tested on: HS 578T breast
NCI-H522 lung = tested on: NCI-H522 lung
CAKI-1 renal = tested on: CAKI-1 renal
BT-549 breast = tested on: BT-549 breast
SN12C renal = tested on: SN12C renal
PC-3 prostate = tested on: PC-3 prostate
EKVX NSCLC = tested on: EKVX NSCLC
HL-60(TB) leukemia = tested on: HL-60(TB) leukemia
COLO 205 colon = tested on: COLO 205 colon
HCT-15 colon = tested on: HCT-15 colon
OVCAR-4 ovarian = tested on: OVCAR-4 ovarian
SF-268 CNS = tested on: SF-268 CNS
HT29 colon = tested on: HT29 colon
SK-MEL-5 melanoma = tested on: SK-MEL-5 melanoma
HOP-62 NSCLC = tested on: HOP-62 NSCLC
SNB-75 CNS = tested on: SNB-75 CNS
NCI-H23 lung = tested on: NCI-H23 lung
UACC-257 melanoma = tested on: UACC-257 melanoma
A549 NSCLC = tested on: A549 NSCLC
OVCAR-5 ovarian = tested on: OVCAR-5 ovarian
M14 melanoma = tested on: M14 melanoma
K-562 leukemia = tested on: K-562 leukemia
TK-10 renal = tested on: TK-10 renal
SF-539 CNS = tested on: SF-539 CNS
HOP-92 NSCLC = tested on: HOP-92 NSCLC
MDA-MB-435 = tested on: MDA-MB-435
UO-31 renal = tested on: UO-31 renal
NCI-H460 lung = tested on: NCI-H460 lung
RPMI-8226 leukemia = tested on: RPMI-8226 leukemia
OVCAR-8 ovarian = tested on: OVCAR-8 ovarian
MOLT-4 leukemia = tested on: MOLT-4 leukemia
SNB-19 CNS = tested on: SNB-19 CNS
T-47D breast = tested on: T-47D breast
RXF 393 renal = tested on: RXF 393 renal
SW-620 colon = tested on: SW-620 colon
MCF7 breast = tested on: MCF7 breast
OVCAR-3 ovarian = tested on: OVCAR-3 ovarian
786-0 renal = tested on: 786-0 renal
DU-145 prostate = tested on: DU-145 prostate
SF-295 CNS = tested on: SF-295 CNS
MDA-N = tested on: MDA-N
SR leukemia = tested on: SR leukemia
LOX IMVI melanoma = tested on: LOX IMVI melanoma

Compound: COC(=O)[C@H](Cc1ccccc1)NC(=O)c1ccc(CNC(=O)/C=C/c2ccc(OCc3ccccc3)cc2)cc1
- TGI (MDA-MB-231 breast): 47 µM
- TGI (UACC-62 melanoma): 18.6 µM
- TGI (HCT-116 colon): > 100 µM
- TGI (SK-OV-3 ovarian): 59.9 µM
- TGI (U251 CNS): > 75.4 µM
- TGI (HCC-2998 colon): > 100 µM
- TGI (IGROV1 ovarian): 9.66 µM
- TGI (CCRF-CEM leukemia): > 100 µM
- TGI (SK-MEL-2 melanoma): 7.92 µM
- TGI (A498 renal): 21.4 µM
- TGI (SK-MEL-28 melanoma): 25.2 µM
- TGI (ACHN renal): 33 µM
- TGI (MALME-3M melanoma): 11.5 µM
- TGI (NCI/ADR-RES ovarian): > 78 µM
- TGI (NCI-H226 lung): 49.8 µM
- TGI (KM12 colon): > 100 µM
- TGI (HS 578T breast): 21.1 µM
- TGI (NCI-H522 lung): > 100 µM
- TGI (CAKI-1 renal): 26 µM
- TGI (BT-549 breast): 57.9 µM
- TGI (SN12C renal): 32.6 µM
- TGI (PC-3 prostate): 43.8 µM
- TGI (EKVX NSCLC): 87.6 µM
- TGI (HL-60(TB) leukemia): 11.8 µM
- TGI (COLO 205 colon): > 100 µM
- TGI (HCT-15 colon): > 100 µM
- TGI (OVCAR-4 ovarian): 25.2 µM
- TGI (SF-268 CNS): 28.1 µM
- TGI (HT29 colon): > 58 µM
- TGI (SK-MEL-5 melanoma): 33.4 µM
- TGI (HOP-62 NSCLC): 26.3 µM
- TGI (SNB-75 CNS): 31.6 µM
- TGI (NCI-H23 lung): 33.5 µM
- TGI (UACC-257 melanoma): 7.33 µM
- TGI (A549 NSCLC): > 72.7 µM
- TGI (OVCAR-5 ovarian): > 81.6 µM
- TGI (M14 melanoma): 7.38 µM
- TGI (K-562 leukemia): > 100 µM
- TGI (TK-10 renal): 32 µM
- TGI (SF-539 CNS): 51.9 µM
- TGI (HOP-92 NSCLC): 9.43 µM
- TGI (MDA-MB-435): 12.8 µM
- TGI (UO-31 renal): 29.5 µM
- TGI (NCI-H460 lung): > 100 µM
- TGI (RPMI-8226 leukemia): > 100 µM
- TGI (OVCAR-8 ovarian): 36.4 µM
- TGI (MOLT-4 leukemia): 28 µM
- TGI (SNB-19 CNS): 36.8 µM
- TGI (T-47D breast): 72.2 µM
- TGI (RXF 393 renal): 18.7 µM
- TGI (SW-620 colon): > 100 µM
- TGI (MCF7 breast): > 100 µM
- TGI (OVCAR-3 ovarian): 28.2 µM
- TGI (786-0 renal): 19.1 µM
- TGI (DU-145 prostate): 32.4 µM
- TGI (SF-295 CNS): 35.7 µM
- TGI (MDA-N): 5.43 µM
- TGI (SR leukemia): > 100 µM
- TGI (LOX IMVI melanoma): > 100 µM

Compound: C#C[C@]1(O)CC[C@H]2[C@@H]3CCC4=C/C(=N\OCCN5CCCCC5)CC[C@]4(C)[C@H]3CC[C@@]21C
- TGI (MDA-MB-231 breast): 29 µM
- TGI (UACC-62 melanoma): 10.7 µM
- TGI (HCT-116 colon): 22.2 µM
- TGI (SK-OV-3 ovarian): 31.2 µM
- TGI (U251 CNS): 33.6 µM
- TGI (HCC-2998 colon): 35.2 µM
- TGI (IGROV1 ovarian): 19.1 µM
- TGI (CCRF-CEM leukemia): > 53.8 µM
- TGI (SK-MEL-2 melanoma): 8.76 µM
- TGI (A498 renal): 20.5 µM
- TGI (SK-MEL-28 melanoma): 27.4 µM
- TGI (ACHN renal): 22.5 µM
- TGI (MALME-3M melanoma): 21.6 µM
- TGI (NCI/ADR-RES ovarian): 15.4 µM
- TGI (NCI-H226 lung): 39.5 µM
- TGI (KM12 colon): 12.3 µM
- TGI (HS 578T breast): 8.86 µM
- TGI (NCI-H522 lung): 6.08 µM
- TGI (CAKI-1 renal): 20.5 µM
- TGI (BT-549 breast): 17.6 µM
- TGI (SN12C renal): 19.7 µM
- TGI (PC-3 prostate): 17.3 µM
- TGI (EKVX NSCLC): 19.9 µM
- TGI (HL-60(TB) leukemia): 6.23 µM
- TGI (COLO 205 colon): 7.43 µM
- TGI (HCT-15 colon): 23 µM
- TGI (OVCAR-4 ovarian): 40 µM
- TGI (SF-268 CNS): 21.7 µM
- TGI (HT29 colon): 22.4 µM
- TGI (SK-MEL-5 melanoma): 6.19 µM
- TGI (HOP-62 NSCLC): 24.4 µM
- TGI (SNB-75 CNS): 17.1 µM
- TGI (NCI-H23 lung): 17.5 µM
- TGI (UACC-257 melanoma): 12.8 µM
- TGI (A549 NSCLC): 22.7 µM
- TGI (OVCAR-5 ovarian): 28.1 µM
- TGI (M14 melanoma): 10.2 µM
- TGI (K-562 leukemia): 8.27 µM
- TGI (TK-10 renal): 22.3 µM
- TGI (SF-539 CNS): 15.5 µM
- TGI (HOP-92 NSCLC): 50.8 µM
- TGI (MDA-MB-435): 8.91 µM
- TGI (UO-31 renal): 16 µM
- TGI (NCI-H460 lung): 27.4 µM
- TGI (RPMI-8226 leukemia): 15.3 µM
- TGI (OVCAR-8 ovarian): 21.2 µM
- TGI (MOLT-4 leukemia): 11.6 µM
- TGI (SNB-19 CNS): 19.1 µM
- TGI (T-47D breast): 19.3 µM
- TGI (RXF 393 renal): 11.3 µM
- TGI (SW-620 colon): 29.9 µM
- TGI (MCF7 breast): 15.6 µM
- TGI (OVCAR-3 ovarian): 16.4 µM
- TGI (786-0 renal): 14.9 µM
- TGI (DU-145 prostate): 23.1 µM
- TGI (SF-295 CNS): 10.6 µM
- TGI (MDA-N): 4.21 µM
- TGI (SR leukemia): 5.17 µM
- TGI (LOX IMVI melanoma): 16.5 µM

Compound: CC(C)(C)c1cc(/C=C(\C#N)C2=NCCO2)cc(C(C)(C)C)c1O
- TGI (MDA-MB-231 breast): 12.4 µM
- TGI (UACC-62 melanoma): 17.1 µM
- TGI (HCT-116 colon): 11.9 µM
- TGI (SK-OV-3 ovarian): > 32.9 µM
- TGI (U251 CNS): 12 µM
- TGI (HCC-2998 colon): 8.77 µM
- TGI (IGROV1 ovarian): 21.9 µM
- TGI (CCRF-CEM leukemia): 9.35 µM
- TGI (SK-MEL-2 melanoma): 8.55 µM
- TGI (A498 renal): 16.7 µM
- TGI (SK-MEL-28 melanoma): 29 µM
- TGI (ACHN renal): 14.5 µM
- TGI (MALME-3M melanoma): 19.6 µM
- TGI (NCI/ADR-RES ovarian): 10.7 µM
- TGI (NCI-H226 lung): 20.1 µM
- TGI (KM12 colon): 15.6 µM
- TGI (HS 578T breast): 34.1 µM
- TGI (NCI-H522 lung): 9.06 µM
- TGI (CAKI-1 renal): > 35.5 µM
- TGI (BT-549 breast): 12.4 µM
- TGI (SN12C renal): 10.1 µM
- TGI (PC-3 prostate): 7.37 µM
- TGI (EKVX NSCLC): 17.2 µM
- TGI (HL-60(TB) leukemia): 5.87 µM
- TGI (COLO 205 colon): 3.39 µM
- TGI (HCT-15 colon): 13.1 µM
- TGI (OVCAR-4 ovarian): 22.8 µM
- TGI (SF-268 CNS): 16.1 µM
- TGI (HT29 colon): 11.7 µM
- TGI (SK-MEL-5 melanoma): 5.62 µM
- TGI (HOP-62 NSCLC): > 38.9 µM
- TGI (SNB-75 CNS): 7.47 µM
- TGI (NCI-H23 lung): 13.4 µM
- TGI (UACC-257 melanoma): 7.89 µM
- TGI (A549 NSCLC): 19.7 µM
- TGI (OVCAR-5 ovarian): 10 µM
- TGI (M14 melanoma): 17 µM
- TGI (K-562 leukemia): 16.5 µM
- TGI (TK-10 renal): 16 µM
- TGI (SF-539 CNS): 12.2 µM
- TGI (HOP-92 NSCLC): 15.2 µM
- TGI (MDA-MB-435): 32.3 µM
- TGI (UO-31 renal): 9.27 µM
- TGI (NCI-H460 lung): 6.63 µM
- TGI (RPMI-8226 leukemia): 4.74 µM
- TGI (OVCAR-8 ovarian): 19.6 µM
- TGI (MOLT-4 leukemia): 21.1 µM
- TGI (SNB-19 CNS): 15.5 µM
- TGI (T-47D breast): 9.13 µM
- TGI (RXF 393 renal): 14.7 µM
- TGI (SW-620 colon): 18.5 µM
- TGI (MCF7 breast): 12.7 µM
- TGI (OVCAR-3 ovarian): 7.51 µM
- TGI (786-0 renal): 14.7 µM
- TGI (DU-145 prostate): > 40.9 µM
- TGI (SF-295 CNS): 9.8 µM
- TGI (MDA-N): 16.6 µM
- TGI (SR leukemia): 8.91 µM
- TGI (LOX IMVI melanoma): 18.8 µM
